This note sets out measurements from patent US8343999B2, “Thiazolyl compounds useful as kinase inhibitors” (Bristol-Myers Squibb Company, priority 2007, dated 2013).

The target in test [1] is IGF1-receptor (Homo sapiens, UniProt P08069). As to the kind of experiment: IGF1-Receptor Tyrosine Kinase Assay (Caliper LabChip, fluoresceinated IGF1R substrate peptide). Format: biochemical. Conditions: In vitro kinase data; ATP 25 μM, IGF1-Receptor 14 nM; read-out: IGF-1R IC50. The procedure: D. IGF1-Receptor Tyrosine Kinase Assay
Sequence of IGF1-receptor (P08069 31-1367): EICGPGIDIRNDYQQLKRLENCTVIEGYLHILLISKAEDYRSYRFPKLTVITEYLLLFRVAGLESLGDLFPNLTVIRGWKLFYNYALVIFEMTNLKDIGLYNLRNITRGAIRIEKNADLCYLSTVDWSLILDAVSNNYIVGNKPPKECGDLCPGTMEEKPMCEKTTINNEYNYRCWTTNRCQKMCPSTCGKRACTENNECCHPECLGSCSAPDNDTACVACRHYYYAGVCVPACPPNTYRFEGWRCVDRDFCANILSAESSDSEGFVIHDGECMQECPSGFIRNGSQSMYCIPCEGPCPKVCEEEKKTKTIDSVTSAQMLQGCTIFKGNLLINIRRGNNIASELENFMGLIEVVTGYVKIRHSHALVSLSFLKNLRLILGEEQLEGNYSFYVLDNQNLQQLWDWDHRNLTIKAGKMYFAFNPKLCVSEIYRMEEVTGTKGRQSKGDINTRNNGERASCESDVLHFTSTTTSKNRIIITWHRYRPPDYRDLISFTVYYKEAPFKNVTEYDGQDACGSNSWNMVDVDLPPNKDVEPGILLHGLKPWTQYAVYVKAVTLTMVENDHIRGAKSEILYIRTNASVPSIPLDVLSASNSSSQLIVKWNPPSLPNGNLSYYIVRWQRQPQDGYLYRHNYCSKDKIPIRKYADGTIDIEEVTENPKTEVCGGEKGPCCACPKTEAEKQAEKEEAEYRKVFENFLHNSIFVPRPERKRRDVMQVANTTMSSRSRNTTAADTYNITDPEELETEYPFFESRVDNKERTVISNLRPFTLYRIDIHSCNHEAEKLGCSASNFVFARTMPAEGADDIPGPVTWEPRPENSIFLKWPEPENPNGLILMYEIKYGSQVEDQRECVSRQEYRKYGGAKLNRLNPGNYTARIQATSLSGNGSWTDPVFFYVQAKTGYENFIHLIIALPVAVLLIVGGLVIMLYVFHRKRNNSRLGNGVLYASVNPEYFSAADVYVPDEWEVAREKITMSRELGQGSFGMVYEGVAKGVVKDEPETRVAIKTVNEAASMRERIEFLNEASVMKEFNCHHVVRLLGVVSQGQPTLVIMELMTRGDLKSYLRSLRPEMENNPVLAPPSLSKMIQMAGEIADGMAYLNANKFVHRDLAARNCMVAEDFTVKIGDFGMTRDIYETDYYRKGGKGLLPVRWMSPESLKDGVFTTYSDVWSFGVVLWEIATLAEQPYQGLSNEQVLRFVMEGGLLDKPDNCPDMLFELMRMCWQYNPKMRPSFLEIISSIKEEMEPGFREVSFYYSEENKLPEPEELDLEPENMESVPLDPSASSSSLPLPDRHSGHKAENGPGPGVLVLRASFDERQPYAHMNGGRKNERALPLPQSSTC
The assays were performed in U-bottom 384-well plates. The final assay volume was 30 μl prepared from 15 μl additions of enzyme and substrates (fluoresceinated IGF1R substrate peptide and ATP) and test compounds in assay buffer (100 mM HEPES pH 7.4, 10 mM MnCl2, 0.015% Brij35 and 4 mM DTT). The reaction was initiated by the combination of IGF1-receptor with substrates and test compounds. The reaction was incubated at room temperature for 60 min. and terminated by adding 30 μl of 35 mM EDTA to each sample. The reaction mixture was analyzed on the Caliper LabChip 3000 by electrophoretic separation of the fluorescent substrate and phosphorylated product. Inhibition data were calculated by comparison to no enzyme control reactions for 100% inhibition and vehicle-only reactions for 0% inhibition. The final concentration of reagents in the assays is ATP, 25 μM; FL-peptide, 1.5 μM; IGF1-Receptor, 14 nM; and DMSO, 1.6%. Dose response curves were generated to determine the concentration required inhibiting 50% of kinase activity (IC50). Compounds were dissolved at 10 mM in dimethylsulfoxide (DMSO) and evaluated at eleven concentrations, each in duplicate. IC50 values were derived by non-linear regression analysis.
(§1) Compounds described herein were tested in the above assay.

Test [2] has as its system IGF1R-Sal tumors. As to the kind of experiment: IGF-1R Sal Tumor Model (tumor xenograft in nude mice). The class given is in vivo. Conditions: qd, orally for 4 consecutive days, nude mice bearing IGF1R-Sal tumors. Here is the method:
P. IGF-1R Sal Tumor Model
A salivary gland adenocarcinoma that developed spontaneously in a transgenic mouse (MCI-19) was excised and cut into fragments of about 20 mg. Tumor fragments were implanted s.c. into the ventral thoracic region of a group of six female, athymic BALB/c nu/nu mice (Harley Sprague-Dawley, Indianapolis, Ind.), using a 13-gauge trocar. Once established, the salivary gland-derived tumor line was designated IGF1R-Sal and was propagated as a tumor xenograft in nude mice. Tumors were passaged every 2 weeks, at which time the tumor reached f500 to 1,000 mm3 in size. For treatment studies, nude micebearing IGF1R-Sal tumors of about 100 mm3 in size were sorted into groups of five for treatment with vehicle (80% polyethylene glycol 400 in water) alone or the test article. Compounds were administered either on a bid schedule (oral doses 8 hours apart) or on a once a day schedule orally (qd) for 4 consecutive days. Tumors were measured at the start and end of treatment. Activity was measured as % tumor growth inhibition (% TGI). The % TGI was determined using the following formula (Ct−Tt)/(Ct−Co) where Ct is defined as the median tumor size of the control group at the end of treatment, Co is defined as the median tumor size of the control group at the start of treatment, and Tt is defined as the median tumor size of the treated group at the end of treatment.
as §1

In general, IC50 refers to the concentration that gives 50% inhibition. In the case of `Cc1ccnc(Nc2ncc(Sc3ccnc(C(=O)NCC4(c5ccccc5)CCN(C)CC4)c3F)s2)c1` [Example 2, 3-Fluoro-N-((1-methyl-4-phenylpiperidin-4-yl)methyl)-4-(2-(4-methylpyridin-2-ylamino)thiazol-5-ylthio)picolinamide], the IC50 in test [1] was determined as 9 nM. The “% TGI” value in test [2] (12.5 mg/kg) stood at 107%. For `Cc1ccnc(Nc2ncc(Sc3ccnc(C(=O)NCC4(c5ccccc5)CCN(CCO)CC4)c3F)s2)c1` [Example 5, 3-Fluoro-N-((1-(2-hydroxyethyl)-4-phenylpiperidin-4-yl)methyl)-4-(2-(4-methylpyridin-2-ylamino)thiazol-5-ylthio)picolinamide] the same measures were 3 nM and 102%. The corresponding values for `Cc1ccnc(Nc2ncc(Sc3ccnc(C(=O)NCC4(c5ccccc5)CCNCC4)c3F)s2)c1` [Example 11, 3-Fluoro-4-(2-(4-methylpyridin-2-ylamino)thiazol-5-ylthio)-N-((4-phenylpiperidin-4-yl)methyl)picolinamide] are 4 nM and 19%.

Turning to `Cc1ccnc(Nc2ncc(Sc3ccnc(C(=O)NCC4(c5ccccc5)CCN(C(=O)CN(C)C)CC4)c3F)s2)c1` [Example 12, N-((1-(2-(dimethylamino)acetyl)-4-phenylpiperidin-4-yl)methyl)-3-fluoro-4-(2-(4-methylpyridin-2-ylamino)thiazol-5-ylthio)picolinamide], the IC50 in test [1] came to 6 nM. Also, in test [2] (12.5 mg/kg), the “% TGI” value worked out at 92%. As to `Cc1ccnc(Nc2ncc(Sc3ccnc(C(=O)NCC4(c5ccccc5)CCN(C(=O)c5cccnc5)CC4)c3F)s2)c1` [Example 18, 3-Fluoro-4-(2-(4-methylpyridin-2-ylamino)thiazol-5-ylthio)-N-((1-nicotinoyl-4-phenylpiperidin-4-yl)methyl)picolinamide], in test [1], the IC50 came out at 1 nM.

On to `CC(=O)N1CCC(CNC(=O)c2nccc(Sc3cnc(Nc4cc(C)ccn4)s3)c2F)(c2ccccc2)CC1` [Example 22, N-((1-acetyl-4-phenylpiperidin-4-yl)methyl)-3-fluoro-4-(2-(4-methylpyridin-2-ylamino)thiazol-5-ylthio)picolinamide], for which the IC50 in test [1] worked out at 3 nM. Same read-out and setting: as for `Cc1ccnc(Nc2ncc(Sc3ccnc(C(=O)NCC4(c5ccccc5)CCN(S(C)(=O)=O)CC4)c3F)s2)c1` [Example 24, 3-Fluoro-4-(2-(4-methylpyridin-2-ylamino)thiazol-5-ylthio)-N-((1-(methylsulfonyl)-4-phenylpiperidin-4-yl)methyl)picolinamide], the figure is 1 nM; as for `Cc1ccnc(Nc2ncc(Sc3ccnc(C(=O)NCC4(c5ccccc5)CCN(CCC#N)CC4)c3F)s2)c1` [Example 33, N-((1-(2-cyanoethyl)-4-phenylpiperidin-4-yl)methyl)-3-fluoro-4-(2-(4-methylpyridin-2-ylamino)thiazol-5-ylthio)picolinamide], 320 nM. As for `Cc1ccnc(Nc2ncc(Sc3ccnc(C(=O)NCC4(C5CCCCC5)CCN(C(=O)OC(C)(C)C)CC4)c3F)s2)c1` [Example 44, tert-butyl 4-cyclohexyl-4-((3-fluoro-4-(2-(4-methylpyridin-2-ylamino)thiazol-5-ylthio)picolinamido)methyl)piperidine-1-carboxylate], in test [1], the IC50 is 25000 nM. Still for that read-out and setting: in the case of `Cc1ccnc(Nc2ncc(Sc3ccnc(C(=O)NCC4(c5ccccn5)CCN(CCO)CC4)c3F)s2)c1` [Example 58, 3-fluoro-N-((1-(2-hydroxyethyl)-4-(pyridin-2-yl)piperidin-4-yl)methyl)-4-(2-(4-methylpyridin-2-ylamino)thiazol-5-ylthio)picolinamide] it was 3 nM. Consider `Cc1ccnc(Nc2ncc(Sc3ccnc(C(=O)NCC4(C5CCCCC5)CCN(C[C@H](O)CO)CC4)c3F)s2)c1` [Example 74, (S)—N-((4-cyclohexyl-1-(2,3-dihydroxypropyl)piperidin-4-yl)methyl)-3-fluoro-4-(2-(4-methylpyridin-2-ylamino)thiazol-5-ylthio)picolinamide], for which the IC50 in test [1] was determined as 9 nM. In test [2] (50 mg/kg), the “% TGI” value is on record as 100%. Turning to `Cc1ccnc(Nc2ncc(Sc3ccnc(C(=O)NCC4(c5ccc(F)cc5F)CCN(C[C@H](O)CO)CC4)c3F)s2)c1` [Example 77, (S)—N-((4-(2,4-difluorophenyl)-1-(2,3-dihydroxypropyl)piperidin-4-yl)methyl)-3-fluoro-4-(2-(4-methylpyridin-2-ylamino)thiazol-5-ylthio)picolinamide], the IC50 in test [1] worked out at 9 nM. The “% TGI” value in test [2] (25 mg/kg) turned out to be 114%. In the case of `COCCOC(=O)N1CCC(CNC(=O)c2nccc(Sc3cnc(Nc4cc(C)ccn4)s3)c2F)(c2ccc(Cl)c(Cl)c2)CC1` [Example 86, 2-methoxyethyl 4-(3,4-dichlorophenyl)-4-((3-fluoro-4-(2-(4-methylpyridin-2-ylamino)thiazol-5-ylthio)picolinamido)methyl)piperidine-1-carboxylate], the IC50 in test [1] is 5690 nM.

As to `COC(=O)N1CCC(CNC(=O)c2nccc(Sc3cnc(Nc4cc(C)ccn4)s3)c2F)(c2ccccn2)CC1` [Example 87, Methyl 4-((3-fluoro-4-(2-(4-methylpyridin-2-ylamino)thiazol-5-ylthio)picolinamido)methyl)-4-(pyridin-2-yl)piperidine-1-carboxylate], in test [1], the IC50 stood at 423 nM.

Take `COCCOC(=O)N1CCC(CNC(=O)c2nccc(Sc3cnc(Nc4cc(C)ccn4)s3)c2F)(c2ccccn2)CC1` [Example 88, 2-Methoxyethyl 4-((3-fluoro-4-(2-(4-methylpyridin-2-ylamino)thiazol-5-ylthio)picolinamido)methyl)-4-(pyridin-2-yl)piperidine-1-carboxylate]: the IC50 in test [1] was 349 nM. Take `Cc1ccnc(Nc2ncc(Sc3ccnc(C(=O)NCC4(c5ccccc5)CCN(C(=O)N(C)C)CC4)c3F)s2)c1` [Example 89, N-((1-(dimethylcarbamoyl)-4-phenylpiperidin-4-yl)methyl)-3-fluoro-4-(2-(4-methylpyridin-2-ylamino)thiazol-5-ylthio)picolinamide]: the IC50 in test [1] came to 358 nM.

On to `Cc1ccnc(Nc2ncc(Sc3ccnc(C(=O)NCC4(c5ccccc5)CCN(C(=O)N5CCOCC5)CC4)c3F)s2)c1` [Example 90, 3-Fluoro-4-(2-(4-methylpyridin-2-ylamino)thiazol-5-ylthio)-N-((1-(morpholine-4-carbonyl)-4-phenylpiperidin-4-yl)methyl)picolinamide], for which the half-inhibitory concentration (IC50) in test [1] was determined as 311 nM.

As for `Cc1ccnc(Nc2ncc(Sc3ccnc(C(=O)NCC4(c5ccccc5)CCN(C(=O)c5ccc(Cl)c(S(N)(=O)=O)c5)CC4)c3F)s2)c1` [Example 92, N-((1-(4-chloro-3-sulfamoylbenzoyl)-4-phenylpiperidin-4-yl)methyl)-3-fluoro-4-(2-(4-methylpyridin-2-ylamino)thiazol-5-ylthio)picolinamide], the 50% inhibitory concentration (IC50) in test [1] was 2000 nM. Regarding `Cc1ccnc(Nc2ncc(Sc3ccnc(C(=O)NCC4(c5ccccc5)CCN(C(=O)c5cc(S(N)(=O)=O)c(F)cc5Cl)CC4)c3F)s2)c1` [Example 93, N-((1-(2-chloro-4-fluoro-5-sulfamoylbenzoyl)-4-phenylpiperidin-4-yl)methyl)-3-fluoro-4-(2-(4-methylpyridin-2-ylamino)thiazol-5-ylthio)picolinamide], the IC50 in test [1] came to 3260 nM. On the same count and under the same terms, in the case of `Cc1ccnc(Nc2ncc(Sc3ccnc(C(=O)NCC4(c5ccccc5)CCN(C(=O)C(C)(C)N)CC4)c3F)s2)c1` [Example 95, N-((1-(2-amino-2-methylpropanoyl)-4-phenylpiperidin-4-yl)methyl)-3-fluoro-4-(2-(4-methylpyridin-2-ylamino)thiazol-5-ylthio)picolinamide] it was 4520 nM.
